Results from PubChem BioAssay (NCI).
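Step 1: Grow cells in 96-well plates. Step 2: Expose to compound for 48 hours at 5 concentrations. Step 3: Interpolate endpoints linearly; if unreached, use highest concentration. Here, GI50 denotes the concentration required for 50% inhibition of growth. TGI marks complete inhibition of growth.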

Key:
Assay in all cases: growth of human tumour cells (NCI), 48 h
[1] = tested on: MDA-MB-231 breast
[2] = tested on: IGROV1 ovarian
[3] = tested on: SF-539 CNS
[4] = tested on: COLO 205 colon
[5] = tested on: NCI-H460 lung
[6] = tested on: RXF 393 renal
[7] = tested on: NCI/ADR-RES ovarian
[8] = tested on: CCRF-CEM leukemia
[9] = tested on: KM12 colon
[10] = tested on: M14 melanoma
[11] = tested on: OVCAR-4 ovarian
[12] = tested on: LOX IMVI melanoma
[13] = tested on: SR leukemia
[14] = tested on: SNB-19 CNS
[15] = tested on: SK-OV-3 ovarian
[16] = tested on: EKVX NSCLC
[17] = tested on: UACC-62 melanoma
[18] = tested on: A549 NSCLC
[19] = tested on: HOP-92 NSCLC
[20] = tested on: A498 renal
[21] = tested on: HCT-116 colon
[22] = tested on: BT-549 breast
[23] = tested on: U251 CNS
[24] = tested on: CAKI-1 renal
[25] = tested on: SNB-75 CNS
[26] = tested on: MDA-MB-435
[27] = tested on: RPMI-8226 leukemia
[28] = tested on: SN12C renal
[29] = tested on: T-47D breast
[30] = tested on: 786-0 renal
[31] = tested on: HOP-62 NSCLC
[32] = tested on: DU-145 prostate
[33] = tested on: NCI-H23 lung
[34] = tested on: SK-MEL-5 melanoma
[35] = tested on: OVCAR-8 ovarian
[36] = tested on: MOLT-4 leukemia
[37] = tested on: MALME-3M melanoma
[38] = tested on: SF-295 CNS
[39] = tested on: SK-MEL-28 melanoma
[40] = tested on: ACHN renal
[41] = tested on: NCI-H226 lung
[42] = tested on: OVCAR-5 ovarian
[43] = tested on: HT29 colon
[44] = tested on: K-562 leukemia
[45] = tested on: TK-10 renal
[46] = tested on: NCI-H522 lung
[47] = tested on: HL-60(TB) leukemia
[48] = tested on: UO-31 renal
[49] = tested on: PC-3 prostate
[50] = tested on: SF-268 CNS
[51] = tested on: HS 578T breast
[52] = tested on: UACC-257 melanoma

## O=C1c2c(c3c4cc(Br)ccc4[nH]c3c3ccc4ccccc4c23)C(=O)N1CCN1CCNCC1
[1]
  GI50: 2.34 µM
  TGI: 6.32 µM
[2]
  GI50: 11.8 µM
  TGI: 33.7 µM
[3]
  GI50: 1.92 µM
  TGI: 3.82 µM
[4]
  GI50: 6.51 µM
  TGI: 27.7 µM
[5]
  GI50: 2.38 µM
  TGI: 10.2 µM
[6]
  GI50: 6.97 µM
  TGI: 23.4 µM
[7]
  GI50: 3.66 µM
  TGI: 26.7 µM
[8]
  GI50: 0.947 µM
  TGI: 6.8 µM
[9]
  GI50: 3.21 µM
  TGI: 11.6 µM
[10]
  GI50: 10.7 µM
  TGI: 25.7 µM
[11]
  GI50: 12.3 µM
  TGI: 33.9 µM
[12]
  GI50: 2.06 µM
  TGI: 5.3 µM
[13]
  GI50: 0.507 µM
  TGI: 2.79 µM
[14]
  GI50: 1.8 µM
  TGI: 3.79 µM
[15]
  GI50: 16.2 µM
  TGI: 30.8 µM
[16]
  GI50: 1.98 µM
  TGI: 4.96 µM
[17]
  GI50: 12.8 µM
  TGI: 31.3 µM
[18]
  GI50: 2.6 µM
  TGI: 9.13 µM
[19]
  GI50: 14.4 µM
  TGI: 28.7 µM
[20]
  GI50: 16.1 µM
  TGI: 29.8 µM
[21]
  GI50: 1.73 µM
  TGI: 3.13 µM
[22]
  GI50: 13.1 µM
  TGI: 30.7 µM
[23]
  GI50: 1.49 µM
  TGI: 2.86 µM
[24]
  GI50: 10.5 µM
  TGI: 24.6 µM
[25]
  GI50: 18.3 µM
  TGI: 35.5 µM
[26]
  GI50: 3.12 µM
  TGI: 10.8 µM
[27]
  GI50: 2.19 µM
  TGI: 5.26 µM
[28]
  GI50: 13.5 µM
  TGI: 36.6 µM
[29]
  GI50: 4.3 µM
  TGI: 26 µM
[30]
  GI50: 2.94 µM
  TGI: 9.44 µM
[31]
  GI50: 6.28 µM
  TGI: 26.9 µM
[32]
  GI50: 2.09 µM
  TGI: 4.53 µM
[33]
  GI50: 2.96 µM
  TGI: 12.7 µM
[34]
  GI50: 18.1 µM
  TGI: 38 µM
[35]
  GI50: 1.96 µM
  TGI: 5 µM
[36]
  GI50: 1.04 µM
  TGI: 4.14 µM
[37]
  GI50: 14.3 µM
  TGI: 36.3 µM
[38]
  GI50: 13.9 µM
  TGI: 32.9 µM
[39]
  GI50: 15.7 µM
  TGI: 35.1 µM
[40]
  GI50: 11.1 µM
  TGI: 27.4 µM
[41]
  GI50: 10.8 µM
  TGI: 39.5 µM
[42]
  GI50: 2.88 µM
  TGI: 9.14 µM
[43]
  GI50: 1.64 µM
  TGI: 3.11 µM
[44]
  GI50: 1.28 µM
  TGI: 3.05 µM
[45]
  GI50: 19.8 µM
  TGI: 38.1 µM
[46]
  GI50: 1.67 µM
  TGI: 7.46 µM
[47]
  GI50: 6.78 µM
  TGI: 26 µM
[48]
  GI50: 11.2 µM
  TGI: 27.2 µM
[49]
  GI50: 2.91 µM
  TGI: 11 µM
[50]
  GI50: 12.3 µM
  TGI: 36.3 µM
[51]
  GI50: 17.9 µM
  TGI: 52.4 µM
[52]
  GI50: 12.9 µM
  TGI: 28.4 µM
